Molecules are shown by their SMILES. Where a name gives a salt, the structure may show the parent alone.

Chain of recombinant human AMCase (Q9BZP6 22-476): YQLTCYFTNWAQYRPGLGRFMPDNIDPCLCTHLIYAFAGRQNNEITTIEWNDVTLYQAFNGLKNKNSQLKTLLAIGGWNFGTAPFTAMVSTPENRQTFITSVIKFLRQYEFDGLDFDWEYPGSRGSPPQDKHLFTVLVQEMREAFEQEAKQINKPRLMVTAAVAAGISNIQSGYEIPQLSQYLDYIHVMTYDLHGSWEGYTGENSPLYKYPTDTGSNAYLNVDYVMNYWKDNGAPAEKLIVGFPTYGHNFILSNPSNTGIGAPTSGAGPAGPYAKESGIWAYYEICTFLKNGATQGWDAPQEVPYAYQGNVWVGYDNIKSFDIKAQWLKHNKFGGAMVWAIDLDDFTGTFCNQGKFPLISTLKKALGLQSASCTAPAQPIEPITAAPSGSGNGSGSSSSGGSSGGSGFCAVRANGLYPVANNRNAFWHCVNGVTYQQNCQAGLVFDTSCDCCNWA

In the assay the target is recombinant human AMCase (Homo sapiens, UniProt Q9BZP6). Nature of the assay: Human AMCase Activity Assay. In kind it is biochemical. To be noted: recombinant hAMCase, 4-methylumbelliferyl chitobioside substrate, citrate buffer pH 5.2, 37° C., 60 minutes; read-out: Activity (IC50 value key). In a few lines:
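Recombinant human enzyme with fluorogenic 4-methylumbelliferyl β-D-N,N′-diacetylchitobioside substrate in citrate buffer, pH 5.2, 60 min at 37 °C in the dark with shaking. Read-out is 4MU fluorescence at 460 nm.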
In the case of `CN(C1CCN(c2nc(N)n[nH]2)CC1)C(CO)Cc1ccc(Cl)cc1` (centres unmarked) [Example 130, 2-((1-(3-amino-1H-1,2,4-triazol-5-yl)piperidin-4-yl)(methyl)amino)-3-(4-chlorophenyl)propan-1-ol dihydrochloride], the IC50 is 100 to 1000 nM.

As to `CN(CCc1cccnc1)C1CCN(c2nc(N)n[nH]2)CC1` [Example 131, 1-(3-amino-1H-1,2,4-triazol-5-yl)-N-methyl-N-(2-(pyridin-3-yl)ethyl)piperidin-4-amine dihydrochloride], the IC50 lay within 10000 to 100000 nM.

For `Nc1nc(N2CCC(N(CCc3ccc(Cl)cc3)Cc3ccc(Cl)cc3)CC2)n[nH]1` [Example 134, 1-(3-amino-1H-1,2,4-triazol-5-yl)-N-(4-chlorobenzyl)-N-(4-chlorophenethyl)piperidin-4-amine], the concentration for half-maximal inhibition (IC50) is less than 100 nM.

`Nc1n[nH]c(N2CCC(N(CCc3ccc(Cl)cc3)[C@H](CO)c3ccccc3)CC2)n1` [Example 135, (S)-2-((1-(3-amino-1H-1,2,4-triazol-5-yl)piperidin-4-yl)(4-chlorophenethyl)amino)-2-phenylethan-1-ol]: the concentration for half-maximal inhibition (IC50) was less than 100 nM.

Consider `CN(Cc1nc2ccccc2[nH]1)C1CCN(c2nc(N)n[nH]2)CC1` [Example 136, N-((1H-benzo[d]imidazol-2-yl)methyl)-1-(3-amino-1H-1,2,4-triazol-5-yl)-N-methylpiperidin-4-aminetrihydrochloride], for which the half-maximal inhibitory concentration (IC50) was more than 100000 nM.

With `Nc1n[nH]c(N2CCC(N(CCc3ccc(Cl)cc3)Cc3ccccc3F)CC2)n1` [Example 137, 1-(3-amino-1H-1,2,4-triazol-5-yl)-N-(4-chlorophenethyl)-N-(2-fluorobenzyl)piperidin-4-amine dihydrochloride], the IC50 was less than 100 nM.

`C[C@H](Cc1ccc(Cl)cc1)N(C)C1CCN(c2nc(N)n[nH]2)CC1` [Example 139, (R)-1-(3-amino-1H-1,2,4-triazol-5-yl)-N-(1-(4-chlorophenyl)propan-2-yl)-N-methylpiperidin-4-amine dihydrochloride]: the IC50 was in the range of 1000 to 10000 nM.

As for `CC(CN(C)C1CCN(c2nc(N)n[nH]2)CC1)c1ccc(Cl)cc1` (centres unmarked) [Example 140, 1-(3-amino-1H-1,2,4-triazol-5-yl)-N-(2-(4-chlorophenyl)propyl)-N-methylpiperidin-4-amine dihydrochloride], the 50% inhibitory concentration (IC50) was 10000 to 100000 nM.

In the case of `CC(Cc1ccc(Cl)cc1)N(C)C1CCN(c2nc(N)n[nH]2)CC1` (centres unmarked) [Example 141, 1-(3-amino-1H-1,2,4-triazol-5-yl)-N-(1-(4-chlorophenyl)propan-2-yl)-N-methylpiperidin-4-amine dihydrochloride], the half-maximal inhibitory concentration (IC50) was in the range of 100 to 1000 nM.

As to `N#Cc1ccc(CN(CCc2ccc(Cl)cc2)C2CCN(c3nc(N)n[nH]3)CC2)cc1` [Example 142, 4-(((1-(3-amino-1H-1,2,4-triazol-5-yl)piperidin-4-yl)(4-chlorophenethyl)amino)methyl)benzonitrile], the concentration for half-maximal inhibition (IC50) is less than 100 nM.

With `Nc1n[nH]c(N2CCC(N(CCc3ccc(Cl)cc3)Cc3ccc(F)c4ccccc34)CC2)n1` [Example 144, 1-(3-amino-1H-1,2,4-triazol-5-yl)-N-(4-chlorophenethyl)-N-((4-fluoronaphthalen-1-yl)methyl)piperidin-4-amine], the IC50 was less than 100 nM.

As to `Nc1nc(N2CCC(N(CCc3ccc(Cl)cc3)Cc3ccc(F)cc3Cl)CC2)n[nH]1` [Example 145, 1-(3-amino-1H-1,2,4-triazol-5-yl)-N-(2-chloro-4-fluorobenzyl)-N-(4-chlorophenethyl)piperidin-4-amine], the IC50 was less than 100 nM.

With `Nc1n[nH]c(N2CCC(N(CCc3ccc(Br)cc3)Cc3ccccc3)CC2)n1` [Example 146, 1-(3-amino-1H-1,2,4-triazol-5-yl)-N-benzyl-N-(4-bromophenethyl)piperidin-4-amine], the IC50 was less than 100 nM.

On to `CC(CNC1CCN(c2nc(N)n[nH]2)CC1)c1ccc(Cl)cc1` (centres unmarked) [Example 147, 1-(3-amino-1H-1,2,4-triazol-5-yl)-N-(2-(4-chlorophenyl)propyl)piperidin-4-aminedihydrochloride], for which the half-maximal inhibitory concentration (IC50) was in the range of 10000 to 100000 nM.

Consider `CN(Cc1ccc(Cl)cc1)C1CCN(c2nc(N)n[nH]2)CC1` [Example 148, 1-(3-amino-1H-1,2,4-triazol-5-yl)-N-(4-chlorobenzyl)-N-methylpiperidin-4-amine dihydrochloride], for which the IC50 is more than 100000 nM.

Regarding `CN(CCc1ccc(Cl)cc1)C1CCN(c2nc(N)n[nH]2)CC1F` (centres unmarked) [Example 150, 1-(3-amino-1H-1,2,4-triazol-5-yl)-N-(4-chlorophenethyl)-3-fluoro-N-methylpiperidin-4-amine], the half-inhibitory concentration (IC50) lay in the range of 1000 to 10000 nM.

As for `CC(Cc1ccc(Cl)cc1)NC1CCN(c2nc(N)n[nH]2)CC1` (centres unmarked) [Example 151, 1-(3-amino-1H-1,2,4-triazol-5-yl)-N-(1-(4-chlorophenyl)propan-2-yl)piperidin-4-amine dihydrochloride], the half-maximal inhibitory concentration (IC50) lay within 1000 to 10000 nM.

`COc1ccc(CN(CCc2ccc(Cl)cc2)C2CCN(c3nc(N)n[nH]3)CC2)cc1` [Example 152, 1-(3-amino-1H-1,2,4-triazol-5-yl)-N-(4-chlorophenethyl)-N-(4-methoxybenzyl)piperidin-4-amine]: the IC50 was less than 100 nM.

For `CN(C1CCN(c2nc(N)n[nH]2)CC1)[C@H](CO)Cc1ccc(Cl)cc1` [Example 153, (S)-2-((1-(3-amino-1H-1,2,4-triazol-5-yl)piperidin-4-yl)(methyl)amino)-3-(4-chlorophenyl)propan-1-ol], the IC50 is 100 to 1000 nM.

In the case of `CC1CN(c2nc(N)n[nH]2)CCC1N(C)CCc1ccc(Cl)cc1` (centres unmarked) [Example 154, 1-(3-amino-1H-1,2,4-triazol-5-yl)-N-(4-chlorophenethyl)-N,3-dimethylpiperidin-4-amine dihydrochloride], the half-maximal inhibitory concentration (IC50) lay in the range of 100 to 1000 nM.

With `Nc1nc(N2CCC(N(CCc3ccc(Cl)cc3)Cc3cccc(C(F)(F)F)c3)CC2)n[nH]1` [Example 156, 1-(3-amino-1H-1,2,4-triazol-5-yl)-N-(4-chlorophenethyl)-N-(3-(trifluoromethyl)benzyl)piperidin-4-amine], the IC50 was less than 100 nM.

In the case of `CN(CCc1ccccn1)C1CCN(c2nc(N)n[nH]2)CC1` [Example 157, 1-(3-amino-1H-1,2,4-triazol-5-yl)-N-methyl-N-(2-(pyridin-2-yl)ethyl)piperidin-4-amine trihydrochloride], the IC50 was 10000 to 100000 nM.

Turning to `CC(Cc1ccc(Cl)cc1)N(Cc1ccccc1)C1CCN(c2nc(N)n[nH]2)CC1` (centres unmarked) [Example 159, 1-(3-amino-1H-1,2,4-triazol-5-yl)-N-benzyl-N-(1-(4-chlorophenyl)propan-2-yl)piperidin-4-amine dihydrochloride], the IC50 is less than 100 nM.

Turning to `CCC(Cc1ccc(Cl)cc1)N(C)C1CCN(c2nc(N)n[nH]2)CC1` (centres unmarked) [Example 160, 1-(3-amino-1H-1,2,4-triazol-5-yl)-N-(1-(4-chlorophenyl)butan-2-yl)-N-methylpiperidin-4-amine], the IC50 lay within 1000 to 10000 nM.

On to `Cc1cccc(Cl)c1CN(CCc1ccc(Cl)cc1)C1CCN(c2nc(N)n[nH]2)CC1` [Example 161, 1-(3-amino-1H-1,2,4-triazol-5-yI)-N-(2-chloro-6-methylbenzyl)-N-(4-chlorophenethyl)piperidin-4-amine], for which the half-maximal inhibitory concentration (IC50) was less than 100 nM.

On to `Nc1n[nH]c(N2CCC(N(CCc3ccc(Cl)cc3)CCc3ccc(Cl)cc3)CC2)n1` [Example 162, 1-(3-amino-1H-1,2,4-triazol-5-yl)-N,N-bis(4-chlorophenethyl)piperidin-4-amine], for which the half-maximal inhibitory concentration (IC50) was less than 100 nM.

With `Nc1n[nH]c(N2CCC(N(CCc3ccc(Cl)cc3)Cc3ccc(Cl)cc3Cl)CC2)n1` [Example 163, 1-(3-amino-1H-1,2,4-triazol-5-yl)-N-(4-chlorophenethyl)-N-(2,4-dichlorobenzyl)piperidin-4-amine], the concentration for half-maximal inhibition (IC50) was less than 100 nM.

As to `Nc1n[nH]c(N2CCC(N(CCc3ccc(Cl)cc3)Cc3ccccc3CO)CC2)n1` [Example 164, (2-(((1-(3-amino-1H-1,2,4-triazol-5-yl)piperidin-4-yl)(4-chlorophenethyl)amino)methyl)phenyl)methanol dihydrochloride], the IC50 is less than 100 nM.

As to `CN(CCc1ccc(Br)cc1)C1CCN(c2nc(N)n(C)n2)CC1` [Example 166, 1-(5-amino-1-methyl-1H-1,2,4-triazol-3-yl)-N-(4-bromophenethyl)-N-methylpiperidin-4-amine], the half-maximal inhibitory concentration (IC50) is more than 100000 nM.

With `Nc1n[nH]c(N2CCC(N(CCc3ccc(Br)cc3)Cc3ccc(F)c4ccccc34)CC2)n1` [Example 167, 1-(3-amino-1H-1,2,4-triazol-5-yl)-N-(4-bromophenethyl)-N-((4-fluoronaphthalen-1-yl)methyl)piperidin-4-amine], the IC50 was less than 100 nM.

For the compound `Nc1n[nH]c(N2CCC(N(CCc3ccc(Br)cc3)Cc3cccc4cnccc34)CC2)n1` [Example 168, 1-(3-amino-1H-1,2,4-triazol-5-yl)-N-(4-bromophenethyl)-N-(isoquinolin-5-ylmethyl)piperidin-4-amine], the 50% inhibitory concentration (IC50) was less than 100 nM.

For the compound `CN(CCc1ccccc1C(F)(F)F)C1CCN(c2nc(N)n[nH]2)CC1` [Example 169, 1-(3-amino-1H-1,2,4-triazol-5-yl)-N-methyl-N-(2-(trifluoromethyl)phenethyl)piperidin-4-amine], the 50% inhibitory concentration (IC50) fell in the range of 1000 to 10000 nM.

As to `CN(CCc1ccc2c(c1)OCO2)C1CCN(c2nc(N)n[nH]2)CC1` [Example 170, 1-(3-amino-1H-1,2,4-triazol-5-yl)-N-(2-(benzo[d][1,3]dioxol-5-yl)ethyl)-N-methylpiperidin-4-amine], the IC50 fell in the range of 1000 to 10000 nM.

As to `COc1ccccc1CCN(C)C1CCN(c2nc(N)n[nH]2)CC1` [Example 172, 1-(3-amino-1H-1,2,4-triazol-5-yl)-N-(2-methoxyphenethyl)-N-methylpiperidin-4-amine], the IC50 fell in the range of 10000 to 100000 nM.

`COc1ccc(CCN(C)C2CCN(c3nc(N)n[nH]3)CC2)cc1OC` [Example 173, 1-(3-amino-1H-1,2,4-triazol-5-yl)-N-(3,4-dimethoxyphenethyl)-N-methylpiperidin-4-amine]: the half-maximal inhibitory concentration (IC50) was 10000 to 100000 nM.

(Values after patent publication US10214531B2 (Institute for Drug Discovery, LLC, priority 2013, dated 2019).)
